From patent publication US10626095B2, “Cyanotriazole compounds” (OTSUKA PHARMACEUTICAL CO., LTD., priority 2013, dated 2020) come the findings set out here.

Data set [1] relates to Zucker Diabetic Fatty (ZDF) rat. The experiment in a line: Meal load test in type 2 diabetic model rats (postprandial blood glucose). It is filed as in vivo. The conditions noted are these: ZDF rats fasted overnight, oral 10 mg/kg in 5% Arabia gum, blood glucose one hour after meal loading (50 kcal/kg). Further details: unit not given here. The gist of the method: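 Overnight-fasted (17 h) ZDF rats, n=6 per group, given compound at 10 or 30 mg/kg orally in 5% Arabia gum 2 h before or just before a 50 kcal/kg AIN-93G meal load. Blood glucose at 1 h; effect expressed as BG1h difference from vehicle.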

The subject of data set [2] is NaCT-CHO (CHO cells stably expressing human NaCT). In words: Assay of the citric acid cycle activation ([1,5-14C]-citric acid, diffusion of [14C]-CO2). It is filed as cell-based. As to conditions: 1 hour incubation at 37° C. with [1,5-14C]-citric acid. The gist of the method:
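NaCT-CHO cells (pME-CHO empty-vector cells for non-specific counts) were incubated 1 h at 37 °C in Na+-containing HEPES-Tris pH 7.4 with compound plus an equal volume of 0.4 mM [1,5-14C]-citric acid solution. Residual cell radioactivity was counted, [14C]-CO2 diffusion was taken as (Total−R)/(Total−NS)×100%, and EC50 was derived by regression.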

By EC50 is commonly meant the concentration needed to bring the measured effect to its halfway point. One may read the melting point as the temperature, or range, at which the solid turns liquid. As to `Cc1cc(/C=C/c2cccc(-c3nn[nH]c3C#N)c2)ccc1F` [Example 607, 5-{3-[(E)-2-(4-fluoro-3-methyl-phenyl)-vinyl]-phenyl}-3H-[1,2,3]triazole-4-carbonitrile], the melting point was 194 to 196 °C. Moreover, the “BG1h (BG1h difference between compound group and vehicle group)” value in data set [1] is −106.8. In data set [2], this compound returned a 50% effective concentration (EC50) of 0.45 µM.
The compound `Cc1cc(-c2nn[nH]c2C#N)ccc1-c1nccc(C(F)(F)F)n1` [Example 989, 5-[3-methyl-4-(4-trifluoromethyl-pyrimidin-2-yl)-phenyl]-3H-[1,2,3]triazole-4-carbonitrile] displayed a melting point of 214 to 218 °C. Also, the “BG1h (BG1h difference between compound group and vehicle group)” value in data set [1] is given as −116.0. In data set [2], this compound showed a concentration giving a half-maximal response (EC50) of 0.8 µM.
In turn, `N#Cc1[nH]nnc1-c1cccc(/C=C/c2ccc(F)cc2C(F)(F)F)c1` [Example 600, 5-{3-[(E)-2-(4-fluoro-2-trifluoromethyl-phenyl)-vinyl]-phenyl}-3H-[1,2,3]triazole-4-carbonitrile] yielded a melting point of 189 to 192 °C. Further, the “BG1h (BG1h difference between compound group and vehicle group)” value in data set [1] was −74.0. In data set [2], this compound showed an EC50 of 0.43 µM.
As to `Cc1cc(-c2ccc(C(F)(F)F)cn2)cc(-c2nn[nH]c2C#N)c1` [Example 807, 5-[3-methyl-5-(5-trifluoromethyl-pyridin-2-yl)-phenyl]-3H-[1,2,3]triazole-4-carbonitrile], the “BG1h (BG1h difference between compound group and vehicle group)” value in data set [1] is −94.5. In data set [2], this compound gave a half-maximal effective concentration (EC50) of 1.1 µM.
`N#Cc1[nH]nnc1-c1nc(-c2cccc(C(F)(F)F)c2)oc1C1CC1` [Example 120, 5-[5-cyclopropyl-2-(3-trifluoromethyl-phenyl)-oxazol-4-yl]-3H-[1,2,3]triazole-4-carbonitrile]: in data set [1], the “BG1h (BG1h difference between compound group and vehicle group)” value is on record as −114.3. The midpoint of the response in data set [2], the EC50, lay at 0.89 µM.
Take `N#Cc1[nH]nnc1-c1cccc(/C=C/c2ccc(F)cc2F)c1` [Example 646, 5-{3-[(E)-2-(2,4-difluoro-phenyl)-vinyl]-phenyl}-3H-[1,2,3]triazole-4-carbonitrile]: the “BG1h (BG1h difference between compound group and vehicle group)” value in data set [1] is given as −89.3. This compound registered an EC50 in data set [2] of 0.62 µM.
`N#Cc1[nH]nnc1-c1cc(Cl)cc(-c2nccc(C(F)(F)F)n2)c1` [Example 23, 5-[3-chloro-5-(4-trifluoromethyl-pyrimidin-2-yl)-phenyl]-3H-[1,2,3]triazole-4-carbonitrile]: in data set [1], the “BG1h (BG1h difference between compound group and vehicle group)” value is −137.0. The EC50 in data set [2] was 0.45 µM.
Consider `N#Cc1[nH]nnc1-c1cccc(/C=C/c2cccc(C(F)(F)F)c2)c1` [Example 613, 5-{3-[(E)-2-(3-trifluoromethyl-phenyl)-vinyl]-phenyl}-3H-[1,2,3]triazole-4-carbonitrile], for which the “BG1h (BG1h difference between compound group and vehicle group)” value in data set [1] is −138.8. In data set [2], this compound registered a concentration giving a half-maximal response (EC50) of 0.43 µM.
Consider `N#Cc1[nH]nnc1-c1cccc(/C=C/c2cc3ccccc3s2)c1` [Example 1004, 5-[3-((E)-2-benzo[b]thiophen-2-yl-vinyl)-phenyl]-3H-[1,2,3]triazole-4-carbonitrile], for which the “BG1h (BG1h difference between compound group and vehicle group)” value in data set [1] is recorded as −89.8. In data set [2], a half-maximal effect (EC50) was put at 1.8 µM.
Regarding `CCOc1cc(-c2nccc(C(F)(F)F)n2)cc(-c2nn[nH]c2C#N)c1` [Example 944, 5-[3-ethoxy-5-(4-trifluoromethyl-pyrimidin-2-yl)-phenyl]-38-[1,2,3]triazole-4-carbonitrile], in data set [1], the “BG1h (BG1h difference between compound group and vehicle group)” value is reported as −125.1. Also, in data set [2], the response was half-maximal at 1.01 µM (EC50).
Regarding `N#Cc1[nH]nnc1-c1cc(-c2cccc(C(F)(F)F)n2)cc(C(F)(F)F)c1` [Example 14, 5-[3-trifluoromethyl-5-(6-trifluoromethyl-pyridin-2-yl)-phenyl]-3H-[1,2,3]triazole-4-carbonitrile], in data set [1], the “BG1h (BG1h difference between compound group and vehicle group)” value is −79.2. Also, the midpoint of the response in data set [2], the EC50, lay at 0.5 µM.
Regarding `N#Cc1[nH]nnc1-c1cc(OCc2cc(C(F)(F)F)ccc2C(F)(F)F)cc(OC(F)(F)F)c1` [Example 504, 5-[3-(2,5-bis-trifluoromethyl-benzyloxy)-5-trifluoromethoxy-phenyl]-3H-[1,2,3]triazole-4-carbonitrile], in data set [1], the “BG1h (BG1h difference between compound group and vehicle group)” value was −69.1. This compound returned an EC50 in data set [2] of 1.47 µM.
Take `N#Cc1[nH]nnc1-c1cccc(/C=C/c2cccc(C(F)(F)F)n2)c1` [Example 1018, 5-{3-[(E)-2-(6-trifluoromethyl-pyridin-2-yl)-vinyl]-phenyl}-3H-[1,2,3]triazole-4-carbonitrile]: the “BG1h (BG1h difference between compound group and vehicle group)” value in data set [1] is −59.2. This compound also registered an EC50 in data set [2] of 1.17 µM.
For `COc1cc(-c2cc(C(F)(F)F)ccn2)cc(-c2nn[nH]c2C#N)c1` [Example 15, 5-[3-methoxy-5-(4-trifluoromethyl-pyridin-2-yl)-phenyl]-3H-[1,2,3]triazole-4-carbonitrile], the “BG1h (BG1h difference between compound group and vehicle group)” value in data set [1] is listed as −50.5. In addition, in data set [2], the EC50 was 0.49 µM.
For `CCc1sc(-c2ccc(Cl)cc2F)nc1-c1nn[nH]c1C#N` [Example 1248, 5-[2-(4-chloro-2-fluoro-phenyl)-5-ethyl-thiazol-4-yl]-3H-[1,2,3]triazole-4-carbonitrile] the same measures were −82.2 and 3.05 µM.
`N#Cc1[nH]nnc1-c1ccc(/C=C/c2cccc(C(F)(F)F)c2)o1` [Example 137, 5-{5-[(E)-2-(3-trifluoromethyl-phenyl)-vinyl]-furan-2-yl}-3H-[1,2,3]triazole-4-carbonitrile]: the “BG1h (BG1h difference between compound group and vehicle group)” value in data set [1] is listed as −162.6. The compound further had an EC50 in data set [2] of 0.57 µM.
For `N#Cc1[nH]nnc1-c1cc(Cl)cc(-c2cc3ccccc3s2)c1` [Example 718, 5-(3-benzo[b]thiophen-2-yl-5-chloro-phenyl)-3H-[1,2,3]triazole-4-carbonitrile], the melting point was in the range of 231 to 233 °C. Further, the “BG1h (BG1h difference between compound group and vehicle group)” value in data set [1] is recorded as −147.5. Besides, the EC50 in data set [2] was 1.51 µM.
For `N#Cc1[nH]nnc1-c1cc(/C=C/c2cccc(C(F)(F)F)c2)cc(C(F)(F)F)c1` [Example 620, 5-{3-trifluoromethyl-5-[(E)-2-(3-trifluoromethyl-phenyl)-vinyl]-phenyl}-3H-[1,2,3]triazole-4-carbonitrile], the “BG1h (BG1h difference between compound group and vehicle group)” value in data set [1] is −159.7. Moreover, a half-maximal response in data set [2] (EC50) required 1.45 µM.
Regarding `CCOc1cc(/C=C/c2cccc(C(F)(F)F)c2)cc(-c2nn[nH]c2C#N)c1` [Example 644, 5-{3-ethoxy-5-[(E)-2-(3-trifluoromethyl-phenyl)-vinyl]-phenyl}-3H-[1,2,3]triazole-4-carbonitrile], the “BG1h (BG1h difference between compound group and vehicle group)” value in data set [1] was −131.0. The same compound returned a concentration giving a half-maximal response (EC50) in data set [2] of 2.35 µM.
`N#Cc1[nH]nnc1-c1cccc(-c2cc3ccccc3o2)n1` [Example 1573, 5-(6-(benzofuran-2-yl)-pyridin-2-yl)-3H-[1,2,3]triazole-4-carbonitrile] showed a melting point of 230 to 233 °C. Besides, the “BG1h (BG1h difference between compound group and vehicle group)” value in data set [1] was −132.7. The same compound gave an EC50 in data set [2] of 1.03 µM.
For the compound `N#Cc1[nH]nnc1-c1cccc(-c2cc(C(F)(F)F)ccn2)c1` [Example 790, 5-[3-(4-trifluoromethyl-pyridin-2-yl)-phenyl]-3H-[1,2,3]triazole-4-carbonitrile], in data set [1], the “BG1h (BG1h difference between compound group and vehicle group)” value was −61.5. Besides, the half-maximal effective concentration (EC50) in data set [2] is 0.98 µM.
For `N#Cc1[nH]nnc1-c1ccc(/C=C/c2ccc(F)cc2)o1` [Example 1505, 5-{5-[(E)-2-(4-fluoro-phenyl)-vinyl]-furan-2-yl}-3H-[1,2,3]triazole-4-carbonitrile] the same measures were −123.5 and 0.42 µM.
For `N#Cc1[nH]nnc1-c1cccc(/C=C/c2cc(C(F)(F)F)ccn2)c1` [Example 50, 5-{3-[(E)-2-(4-trifluoromethyl-pyridin-2-yl)-vinyl]-phenyl}-3H-[1,2,3]triazole-4-carbonitrile] the same measures were −120.0 and 0.44 µM.
The corresponding values for `Cc1cc(-c2ccc(C(F)(F)F)nc2)cc(-c2nn[nH]c2C#N)c1` [Example 11, 5-[3-methyl-5-(6-trifluoromethyl-pyridin-3-yl)-phenyl]-3H-[1,2,3]triazole-4-carbonitrile] are −93.2 and 0.67 µM.
As for `CCc1sc(-c2ccc(Cl)cc2)nc1-c1nn[nH]c1C#N` [Example 98, 5-[2-(4-chloro-phenyl)-5-ethyl-thiazol-4-yl]-3H-[1,2,3]triazole-4-carbonitrile], the “BG1h (BG1h difference between compound group and vehicle group)” value in data set [1] is −87.9. For the same compound, in data set [2], the EC50 stood at 0.59 µM.
In the case of `N#Cc1[nH]nnc1-c1csc(-c2cccc(C(F)(F)F)c2)n1` [Example 78, 5-[2-(3-trifluoromethyl-phenyl)-thiazol-4-yl]-3H-[1,2,3]triazole-4-carbonitrile], the “BG1h (BG1h difference between compound group and vehicle group)” value in data set [1] is recorded as −93.7. It took 0.51 µM to reach a half-maximal effect in data set [2] (EC50).
Consider `N#Cc1[nH]nnc1-c1cccc(/C=C/c2cncc(C(F)(F)F)c2)c1` [Example 49, 5-{3-[(E)-2-(5-trifluoromethyl-pyridin-3-yl)-vinyl]-phenyl}-3H-[1,2,3]triazole-4-carbonitrile], for which, in data set [1], the “BG1h (BG1h difference between compound group and vehicle group)” value is −78.7. Further, the EC50 in data set [2] came out at 0.48 µM.
`N#Cc1[nH]nnc1-c1cc(OC(F)(F)F)cc(-c2ccc3c(c2)OC(F)(F)O3)c1` [Example 934, 5-[3-(2,2-difluoro-benzo[1,3]dioxol-5-yl)-5-trifluoromethoxy-phenyl]-3H-[1,2,3]triazole-4-carbonitrile]: in data set [1], the “BG1h (BG1h difference between compound group and vehicle group)” value is −87.2. This compound also displayed a 50% effective concentration (EC50) in data set [2] of 0.51 µM.
